The values below come from patent US10689381B2 (priority 2017, dated 2020).

Assay [1] concerns HCT116. In words: cells. The note with it: for pIC50: Table 2, read-out: IC50 HCT116; for potency relative to vinblastine (more potent): vinblastine-sensitive cell lines. Format: cell-based, human. How it is done:
(§1) A population of cells (>1×10^6 cells/mL as determined with a hemocytometer) was diluted with Dulbecco's Modified Eagle Medium (DMEM, Gibco) containing 10% fetal bovine serum (FBS, Gibco) to give a final concentration of 30,000 cells/mL. To each well of a 96-well plate (Corning® Costar®) was added 100 μL of the cell media solution with a multichannel pipet.
(§2) The test compounds were then added to the plate as follows: test compounds were diluted in DMSO to a concentration of 1 mM. 10-Fold serial dilutions in DMSO were next performed on a separate 96-well plate. Fresh culture media (100 μL) was added to each well of cells resulting in 200 μL of medium per well followed by 2 μL of each test agent. Compounds were tested in duplicate (n=2-8 times) at six concentrations between 0-1000 nM or 0-10000 nM. Following the addition of compound, cultures were incubated for an additional 72 hours.
(§3) The plates were incubated at 37° C. for 5 minutes (L1210) or 15 min (HCT116 and HCT116/VM46).

The subject of assay [2] is L1210. Description: cells. The note with it: Table 2. Format: cell-based, mouse. The method, then:
as §1, §2, §3

pIC50: −log10 of the molar value.

For the compound `CCC1(NC(=O)c2ccc(OC)c(OC)c2)CC2CN(CCc3c([nH]c4ccccc34)C(C(=O)OC)(c3cc4c(cc3OC)N(C)C3C(O)(C(=O)OC)C(OC(C)=O)C5(CC)C=CCN6CCC43C65)C2)C1` (centres unmarked) [Compound 70], the pIC50 in assay [1] is 10.15; in assay [2], 10.22.

Regarding `CC[C@]1(NC(=O)c2cc(OC)c(OC)c(OC)c2)C[C@H]2CN(CCc3c([nH]c4ccccc34)[C@@](C(=O)OC)(c3cc4c(cc3OC)N(C)[C@H]3[C@@](O)(C(=O)OC)[C@H](OC(C)=O)[C@]5(CC)C=CCN6CC[C@]43[C@@H]65)C2)C1` [Compound 71], the pIC50 in assay [1] is 10.00; in assay [2], 10.05.

In the case of `CCOc1ccc(C(=O)NC2(CC)CC3CN(CCc4c([nH]c5ccccc45)C(C(=O)OC)(c4cc5c(cc4OC)N(C)C4C(O)(C(=O)OC)C(OC(C)=O)C6(CC)C=CCN7CCC54C76)C3)C2)cc1` (centres unmarked) [Compound 72], in assay [1], the negative-log IC50 (pIC50) was 9.22 and the “potency relative to vinblastine (more potent)” value (from here on “potency relative to vinblastine”) was 10 fold. Also, the negative-log IC50 (pIC50) in assay [2] was 9.22.

Take `CCOc1ccc(C(=O)NC2(CC)CC3CN(CCc4c([nH]c5ccccc45)C(C(=O)OC)(c4cc5c(cc4OC)N(C)C4C(O)(C(=O)OC)C(OC(C)=O)C6(CC)C=CCN7CCC54C76)C3)C2)cc1OCC` (centres unmarked) [Compound 73]: the pIC50 in assay [1] was 9.30; in assay [2], 9.40.

As to `CCC1(NC(=O)c2ccc(OC(C)C)cc2)CC2CN(CCc3c([nH]c4ccccc34)C(C(=O)OC)(c3cc4c(cc3OC)N(C)C3C(O)(C(=O)OC)C(OC(C)=O)C5(CC)C=CCN6CCC43C65)C2)C1` (centres unmarked) [Compound 74], in assay [1], the pIC50 was 9.10 and the “potency relative to vinblastine” value turned out to be 10 fold. In addition, the pIC50 in assay [2] is 9.15.

On to `CC[C@]1(NC(=O)c2ccc(OC(C)(C)C)cc2)C[C@H]2CN(CCc3c([nH]c4ccccc34)[C@@](C(=O)OC)(c3cc4c(cc3OC)N(C)[C@H]3[C@@](O)(C(=O)OC)[C@H](OC(C)=O)[C@]5(CC)C=CCN6CC[C@]43[C@@H]65)C2)C1` [Compound 75], for which the pIC50 in assay [1] and in assay [2] was 9.22 in each case.

As for `CCC1(NC(=O)c2ccc(Oc3ccccc3)cc2)CC2CN(CCc3c([nH]c4ccccc34)C(C(=O)OC)(c3cc4c(cc3OC)N(C)C3C(O)(C(=O)OC)C(OC(C)=O)C5(CC)C=CCN6CCC43C65)C2)C1` (centres unmarked) [Compound 76], the negative logarithm of the IC50 (pIC50) in assay [1] is 8.19; in assay [2], 8.28.

Consider `CC[C@]1(NC(=O)c2ccc(OCc3ccccc3)cc2)C[C@H]2CN(CCc3c([nH]c4ccccc34)[C@@](C(=O)OC)(c3cc4c(cc3OC)N(C)[C@H]3[C@@](O)(C(=O)OC)[C@H](OC(C)=O)[C@]5(CC)C=CCN6CC[C@]43[C@@H]65)C2)C1` [Compound 77], for which the negative-log IC50 (pIC50) in assay [1] is 8.24; in assay [2], 8.27.

As for `CCC1(NC(=O)c2ccc(OC(F)(F)F)cc2)CC2CN(CCc3c([nH]c4ccccc34)C(C(=O)OC)(c3cc4c(cc3OC)N(C)C3C(O)(C(=O)OC)C(OC(C)=O)C5(CC)C=CCN6CCC43C65)C2)C1` (centres unmarked) [Compound 78], the pIC50 in assay [1] was 8.36; in assay [2], 8.23.

Take `CCC1(NC(=O)c2cccc(OC(F)(F)F)c2)CC2CN(CCc3c([nH]c4ccccc34)C(C(=O)OC)(c3cc4c(cc3OC)N(C)C3C(O)(C(=O)OC)C(OC(C)=O)C5(CC)C=CCN6CCC43C65)C2)C1` (centres unmarked) [Compound 79]: the pIC50 in assay [1] was 8.23; in assay [2] it was 8.32.

Consider `CC[C@]1(NC(=O)c2ccccc2OC(F)(F)F)C[C@H]2CN(CCc3c([nH]c4ccccc34)[C@@](C(=O)OC)(c3cc4c(cc3OC)N(C)[C@H]3[C@@](O)(C(=O)OC)[C@H](OC(C)=O)[C@]5(CC)C=CCN6CC[C@]43[C@@H]65)C2)C1` [Compound 80], for which the pIC50 was 6.32 in assay [1] and 6.35 in assay [2].

As for `CCC1(NC(=O)c2ccc(OC(F)F)cc2)CC2CN(CCc3c([nH]c4ccccc34)C(C(=O)OC)(c3cc4c(cc3OC)N(C)C3C(O)(C(=O)OC)C(OC(C)=O)C5(CC)C=CCN6CCC43C65)C2)C1` (centres unmarked) [Compound 81], the pIC50 in assay [1] is 8.77; in assay [2] it was 8.23.

As to `CC[C@]1(NC(=O)c2ccc(OC(F)(F)F)c(OC)c2)C[C@H]2CN(CCc3c([nH]c4ccccc34)[C@@](C(=O)OC)(c3cc4c(cc3OC)N(C)[C@H]3[C@@](O)(C(=O)OC)[C@H](OC(C)=O)[C@]5(CC)C=CCN6CC[C@]43[C@@H]65)C2)C1` [Compound 83], the figures for the negative-log IC50 (pIC50) in assay [1] and in assay [2] were 8.77 and 8.89, respectively.

Take `CCC1(NC(=O)c2ccc(SC)cc2)CC2CN(CCc3c([nH]c4ccccc34)C(C(=O)OC)(c3cc4c(cc3OC)N(C)C3C(O)(C(=O)OC)C(OC(C)=O)C5(CC)C=CCN6CCC43C65)C2)C1` (centres unmarked) [Compound 84]: the results for the pIC50 in assay [1] and in assay [2] were 9.30 and 9.40, respectively.

Consider `CCC1(NC(=O)c2cccc(SC)c2)CC2CN(CCc3c([nH]c4ccccc34)C(C(=O)OC)(c3cc4c(cc3OC)N(C)C3C(O)(C(=O)OC)C(OC(C)=O)C5(CC)C=CCN6CCC43C65)C2)C1` (centres unmarked) [Compound 85], for which the negative-log IC50 (pIC50) is 8.64 in assay [1] and 8.27 in assay [2].

Consider `CCSc1ccc(C(=O)NC2(CC)CC3CN(CCc4c([nH]c5ccccc45)C(C(=O)OC)(c4cc5c(cc4OC)N(C)C4C(O)(C(=O)OC)C(OC(C)=O)C6(CC)C=CCN7CCC54C76)C3)C2)cc1` (centres unmarked) [Compound 86], for which the pIC50 in assay [1] was 8.21; in assay [2], 8.31.

Take `CCC1(NC(=O)c2ccc(SC(C)C)cc2)CC2CN(CCc3c([nH]c4ccccc34)C(C(=O)OC)(c3cc4c(cc3OC)N(C)C3C(O)(C(=O)OC)C(OC(C)=O)C5(CC)C=CCN6CCC43C65)C2)C1` (centres unmarked) [Compound 87]: the pIC50 is 8.34 in assay [1] and 8.37 in assay [2].

Take `CCC1(NC(=O)c2ccc(S(=O)(=O)F)cc2)CC2CN(CCc3c([nH]c4ccccc34)C(C(=O)OC)(c3cc4c(cc3OC)N(C)C3C(O)(C(=O)OC)C(OC(C)=O)C5(CC)C=CCN6CCC43C65)C2)C1` (centres unmarked) [Compound 88]: the pIC50 in assay [1] was 7.52; in assay [2] it was 7.70.

Regarding `CC[C@]1(NC(=O)c2cccc(S(=O)(=O)F)c2)C[C@H]2CN(CCc3c([nH]c4ccccc34)[C@@](C(=O)OC)(c3cc4c(cc3OC)N(C)[C@H]3[C@@](O)(C(=O)OC)[C@H](OC(C)=O)[C@]5(CC)C=CCN6CC[C@]43[C@@H]65)C2)C1` [Compound 89], the negative logarithm of the IC50 (pIC50) is 7.52 in assay [1] and 7.40 in assay [2].

As for `CC[C@]1(NC(=O)c2ccc(OC)c(F)c2)C[C@H]2CN(CCc3c([nH]c4ccccc34)[C@@](C(=O)OC)(c3cc4c(cc3OC)N(C)[C@H]3[C@@](O)(C(=O)OC)[C@H](OC(C)=O)[C@]5(CC)C=CCN6CC[C@]43[C@@H]65)C2)C1` [Compound 90], the pIC50 in assay [1] and in assay [2] was 9.22 each time.

For `CC[C@]1(NC(=O)c2ccc(OC)cc2F)C[C@H]2CN(CCc3c([nH]c4ccccc34)[C@@](C(=O)OC)(c3cc4c(cc3OC)N(C)[C@H]3[C@@](O)(C(=O)OC)[C@H](OC(C)=O)[C@]5(CC)C=CCN6CC[C@]43[C@@H]65)C2)C1` [Compound 91], the negative logarithm of the IC50 (pIC50) was 8.19 in assay [1] and 8.21 in assay [2].

Consider `CC[C@]1(NC(=O)c2ccc(OC)c(Cl)c2)C[C@H]2CN(CCc3c([nH]c4ccccc34)[C@@](C(=O)OC)(c3cc4c(cc3OC)N(C)[C@H]3[C@@](O)(C(=O)OC)[C@H](OC(C)=O)[C@]5(CC)C=CCN6CC[C@]43[C@@H]65)C2)C1` [Compound 92], for which the pIC50 in assay [1] is 8.29; in assay [2], 8.43.

As for `CCC1(NC(=O)c2ccc(OC)c(Br)c2)CC2CN(CCc3c([nH]c4ccccc34)C(C(=O)OC)(c3cc4c(cc3OC)N(C)C3C(O)(C(=O)OC)C(OC(C)=O)C5(CC)C=CCN6CCC43C65)C2)C1` (centres unmarked) [Compound 93], the negative-log IC50 (pIC50) in assay [1] is 8.21; in assay [2], 8.29.

As for `CCOc1ccc(C(=O)N[C@@]2(CC)C[C@H]3CN(CCc4c([nH]c5ccccc45)[C@@](C(=O)OC)(c4cc5c(cc4OC)N(C)[C@H]4[C@@](O)(C(=O)OC)[C@H](OC(C)=O)[C@]6(CC)C=CCN7CC[C@]54[C@@H]76)C3)C2)cc1Cl` [Compound 94], the pIC50 in assay [1] was 8.21; in assay [2] it was 8.38.

For `CCOc1ccc(C(=O)N[C@@]2(CC)C[C@H]3CN(CCc4c([nH]c5ccccc45)[C@@](C(=O)OC)(c4cc5c(cc4OC)N(C)[C@H]4[C@@](O)(C(=O)OC)[C@H](OC(C)=O)[C@]6(CC)C=CCN7CC[C@]54[C@@H]76)C3)C2)cc1Br` [Compound 95], the pIC50 is 8.21 in assay [1] and 8.41 in assay [2].

Regarding `CC[C@]1(NC(=O)c2cc(Cl)c(OC)c(Cl)c2)C[C@H]2CN(CCc3c([nH]c4ccccc34)[C@@](C(=O)OC)(c3cc4c(cc3OC)N(C)[C@H]3[C@@](O)(C(=O)OC)[C@H](OC(C)=O)[C@]5(CC)C=CCN6CC[C@]43[C@@H]65)C2)C1` [Compound 96], the pIC50 in assay [1] was 8.38; in assay [2], 8.51.

On to `CC[C@]1(NC(=O)c2ccc(OC)c(C)c2)C[C@H]2CN(CCc3c([nH]c4ccccc34)[C@@](C(=O)OC)(c3cc4c(cc3OC)N(C)[C@H]3[C@@](O)(C(=O)OC)[C@H](OC(C)=O)[C@]5(CC)C=CCN6CC[C@]43[C@@H]65)C2)C1` [Compound 97], for which, in assay [1], the pIC50 was 9.15 and the “potency relative to vinblastine” value amounted to 10 fold. For the same compound, in assay [2], the negative logarithm of the IC50 (pIC50) was 9.22.

For the compound `CCC1(NC(=O)c2ccc(C)c(OC)c2)CC2CN(CCc3c([nH]c4ccccc34)C(C(=O)OC)(c3cc4c(cc3OC)N(C)C3C(O)(C(=O)OC)C(OC(C)=O)C5(CC)C=CCN6CCC43C65)C2)C1` (centres unmarked) [Compound 98], the negative logarithm of the IC50 (pIC50) in assay [1] was 8.48; in assay [2], 8.38.

One may read the pIC50 as the negative decadic logarithm of the IC50, by convention in mol/L.
